Reference: patent US10683276B2, “Heterocycle-substituted bicyclic azole pesticides” (FMC Corporation, priority 2015, dated 2020)

Assays:
Type in all cases: in vivo
[1] = system: diamondback moth (Plutella xylostella (L.)); experiment: Test A: control of diamondback moth, foliar spray on mustard plant; details: sprayed at 250 ppm; neonate larvae on mustard plant; assessed after 6 days
Method: (§1) Test compounds were formulated using a solution containing 10% acetone, 90% water and 300 ppm X-77® Spreader Lo-Foam Formula non-ionic surfactant containing alkylarylpolyoxyethylene, free fatty acids, glycols and isopropanol (Loveland Industries, Inc. Greeley, Colo., USA). The formulated compounds were applied in 1 mL of liquid through a SUJ2 atomizer nozzle with ⅛ JJ custom body (Spraying Systems Co. Wheaton, Ill., USA) positioned 1.27 cm (0.5 inches) above the top of each test unit. Test compounds were sprayed at the rates indicated, and each test was replicated three times.
For evaluating control of diamondback moth (Plutella xylostella (L.)) the test unit consisted of a small open container with a 12-14-day-old mustard plant inside. This was pre-infested with ˜50 neonate larvae that were dispensed into the test unit via corn cob grits using an inoculator. The larvae moved onto the test plant after being dispensed into the test unit.
Test compounds were formulated and sprayed at 250 and/or 50 ppm. After spraying of the formulated test compound, each test unit was allowed to dry for 1 hour and then a black, screened cap was placed on top. The test units were held for 6 days in a growth chamber at 25° C. and 70% relative humidity. Plant feeding damage was then visually assessed based on foliage consumed, and larvae were assessed for mortality.

[2] = system: green peach aphid (Myzus persicae (Sulzer)); experiment: Test C: control of green peach aphid, spray on radish plant; details: 144 h, sprayed at 50 ppm, assessed after 6 days
Method: as §1
For evaluating control of green peach aphid (Myzus persicae (Sulzer)) through contact and/or systemic means, the test unit consisted of a small open container with a 12-15-day-old radish plant inside. This was pre-infested by placing on a leaf of the test plant 30-40 aphids on a piece of leaf excised from a culture plant (cut-leaf method). The aphids moved onto the test plant as the leaf piece desiccated. After pre-infestation, the soil of the test unit was covered with a layer of sand.
Test compounds were formulated and sprayed at 250 and/or 50 ppm. After spraying of the formulated test compound, each test unit was allowed to dry for 1 hour and then a black, screened cap was placed on top. […] Each test unit was then visually assessed for insect mortality.

[3] = system: cotton melon aphid (Aphis gossypii (Glover)); experiment: Test D: control of cotton melon aphid, spray on cotton plant; details: 144 h, sprayed at 50 ppm, assessed after 6 days
Method: as §1
For evaluating control of cotton melon aphid (Aphis gossypii (Glover)) through contact and/or systemic means, the test unit consisted of a small open container with a 6-7-day-old cotton plant inside. This was pre-infested with 30-40 insects on a piece of leaf according to the cut-leaf method, and the soil of the test unit was covered with a layer of sand.
Test compounds were formulated and sprayed at 250 and/or 50 ppm. After spraying, the test units were maintained in a growth chamber for 6 days at 19° C. and 70% relative humidity. Each test unit was then visually assessed for insect mortality.

[4] = system: sweetpotato whitefly (Bemisia tabaci (Gennadius)); experiment: Test E: control of sweetpotato whitefly, spray on cotton plant; details: sprayed at 50 ppm; eggs on cotton plant; assessed after 13 days
Method: as §1
For evaluating control of the sweetpotato whitefly (Bemisia tabaci (Gennadius)) through contact and/or systemic means, the test unit consisted of a small open container with a 12-14-day-old cotton plant inside. Prior to the spray application, both cotyledons were removed from the plant, leaving one true leaf for the assay. Adult whiteflies were allowed to lay eggs on the plant and then were removed from the test unit. Cotton plants infested with at least 15 eggs were submitted to the test for spraying.
Test compounds were formulated and sprayed at 250 and/or 50 ppm. After spraying, the test units were allowed to dry for 1 hour. […] Each test unit was then visually assessed for insect mortality.

[5] = system: Western Flower Thrips (Frankliniellla occidentalis (Pergande)); experiment: Test F: control of Western Flower Thrips, spray on Soleil bean plant; details: sprayed at 250 ppm; adult thrips on Soleil bean plant; held for 6 days
Method: For evaluating control of the Western Flower Thrips (Frankliniellla occidentalis (Pergande)) through contact and/or systemic means, the test unit consisted of a small open container with a 5-7-day-old Soleil bean plant inside.
Test compounds were formulated and sprayed at 250 and/or 50 ppm. After spraying, the test units were allowed to dry for 1 hour, and then 22-27 adult thrips were added to each unit. A black, screened cap was placed on top, and the test units were held for 6 days at 25° C. and 45-55% relative humidity.

For `CN(C)C(=O)C(C)(C)NC(=O)C(C)(C)NC(=O)c1cccc2nn(-c3cccnc3)cc12` [Compound 2], the “control efficacy (40% or less feeding damage and/or 100% mortality)” value [1] was “very good to excellent levels of control efficacy”.
`CC(C)(NC(=O)c1cccc2nn(-c3cccnc3)cc12)C(=O)NCc1ccccc1` [Compound 25, N-[1,1-dimethyl-2-oxo-2-[(phenylmethyl)amino]ethyl]-2-(3-pyridinyl)-2H-indazole-4-carboxamide] gave a mortality at 50 ppm [2] of at least 80% and a mortality at 50 ppm [3] of at least 80%.
For `CC(C)(NC(=O)c1cccc2nn(-c3cccnc3)cc12)C(=O)NCc1ccccn1` [Compound 26], the mortality [4] was “at least 50%”.
`CC(C)(NC(=O)c1cccc2nn(-c3cccnc3)cc12)C(=O)NC1CCC1` [Compound 43] was tested, and the “control efficacy (30% or less plant damage and/or 100% mortality)” value [5] was “very good to excellent levels of control efficacy”.
For `CON(C)C(=O)C(C)(C)NC(=O)c1cccc2nn(-c3cccnc3)cc12` [Compound 47], the “control efficacy (30% or less plant damage and/or 100% mortality)” value [5] was “very good to excellent levels of control efficacy”.
`CONC(=O)C(C)(C)NC(=O)c1cccc2nn(-c3cccnc3)cc12` [Compound 48] was tested, and the “control efficacy (30% or less plant damage and/or 100% mortality)” value [5] was “very good to excellent levels of control efficacy”.
